Results as given in patent US12729231B2, “Fusion protein having triple activity and use thereof” (SHANGHAI MINWEI BIOTECHNOLOGY CO., LTD, priority 2023, dated 2026).
Changes are numbered by the printed parent chain. Numbers in names are those of the source.

B1: natural FGF21: Fibroblast growth factor 21, wild type, SEQ ID NO 1 (protein)
chain: HPIPDSSPLLQFGGQVRQRYLYTDDAQQTEAHLEIREDGTVGGAADQSPESLLQLKALKPGVIQILGVKTSRFLCQRPDGALYGSLHFDPEACSFRELLLEDGYNVYQSEAHGLPLHLPGNKSPHRDPAPRGPARFLPLPGLPPALPEPPGILAPQPPDVGSSDPLSMVGPSQGRSPSYAS
modifications: Wild type FGF21
B2: FGF21 L98R, P171G, A180E: FGF21 with the L98R, P171G, and A180E mutations, background literature variant (protein, UniProt Q9NSA1 29-209, looked up, variant L98R P171G A180E)
Fibroblast growth factor 21: B1 chain with L98R, P171G, A180E

Columns and labels:
[1] = tested on: DIO mice; assay: body weight reduction by multiple subcutaneous injections in DIO mice; assay type: in vivo; details: 30 nmol/kg subcutaneous twice a week for 5 weeks, mean of 6 mice
Method: 7-week-old C57BL/6Nju mice were fed with a high-fat diet (of about 20% protein and about 60% fat) for 12 weeks for modeling. Feeding conditions: 12 hours of light and 12 hours of darkness cycle every day, ad libitum feeding, temperature 20-25° C., relative humidity 40-70%, ventilation frequency of 10-15 times/hour. According to body weight, water consumption, and food intake, the mice were randomly divided into groups the day before administration. […] Subcutaneous injection treatment was administered twice a week for 5 consecutive weeks, for a total of 10 administrations. After the administration, the body weight, OGTT, body fat ratio, blood lipids and liver function of the mice were measured. The data are shown as mean±standard deviation, and statistically analyzed by One-Way ANOVA.

[2] = cynomolgus macaques; cited from earlier work

Molecule	ALT ([1]; DIO mice)	AST ([1]; DIO mice)	Blood glucose (fasting) ([1]; DIO mice)	LDL-C (plasma low-density lipoprotein cholesterol) ([1]; DIO mice)	TC (plasma total cholesterol) ([1]; DIO mice)	% Change in weight since inception ([1]; DIO obese mice)	half-life in vivo [2]
Tirzepatide	19.000 U/L	54.683 U/L	7.2 mmol/L	0.423 mmol/L	3.923 mmol/L	−22.55%	
B1							2 to 3 h
B2							about 70 hours
